Calls of active or inactive are those of the source. No cut-off for these calls is given here.
What was measured:
[1] = system: Spodoptera litura; experiment: Antifeedant activity against Spodoptera litura in compound treated cork borer from fresh sweet potato leaves assessed as leaf disk consumed at 26.5 degC; assay type: functional
[2] = Lipophilicity, log k of the compound from retention time in ODS HPLC
[3] = system: Spodoptera litura; experiment: Antifeedant activity against Spodoptera litura in compound treated cork borer from fresh sweet potato leaves assessed as leaf disk consumed at 0.33 mg/cm2 at 26.5 degC; assay type: functional

log k [2]	SMILES	ED50 [1]	pED50 [1]	Activity [3]
	Cc1cc(C)c2c(c1)OCC2=O [4,6-DIMETHYLCOUMARANONE]	0.68 umol/cm2	6.17	
	COc1cc(/C=C2\Oc3ccccc3C2=O)cc(OC)c1OC	inactive		<40%
	COc1cc(/C=C2\Oc3ccccc3C2=O)ccc1O	inactive		<40%
0.56	COc1cc(OC)c2c(c1)O/C(=C\c1ccccc1)C2=O	0.85 umol/cm2	6.07	
	COc1cc2c(c(OC)c1OC)C(=O)CO2 [4,5,6-TRIMETHOXYCOUMARANONE]	0.41 umol/cm2	6.39	
	O=C1/C(=C/c2ccc(O)c(O)c2)Oc2ccccc21	inactive		<40%
	C/C=C(/C)C(=O)O[C@H]1C[C@@H](OC(C)=O)[C@@]2(C)CO[C@H]3[C@H]4O[C@@H]5C[C@@H](c6ccoc6)C(C)=C5[C@@]4(C)[C@H](CC(=O)OC)[C@]1(C)[C@@H]32 [SALANNIN]	0.066 umol/cm2	7.18	
0.689	COc1ccc(/C=C2\Oc3ccccc3C2=O)cc1 [4'-METHOXY-AURONE]	2.03 umol/cm2	5.69	
1.05	O=C1/C(=C/c2cccc(Br)c2)Oc2ccccc21	4.21 umol/cm2	5.38	
0.624	O=C1/C(=C/c2ccc3c(c2)OCO3)Oc2ccccc21	1.61 umol/cm2	5.79	
	Cc1cc(C)c2c(c1)O/C(=C\c1ccc(C)c(C)c1)C2=O	inactive		<40%
	O=C1COc2ccccc21 [3-COUMARANONE]	inactive		<40%
0.741	COc1cc(/C=C2\Oc3ccccc3C2=O)cc(OC)c1	3.45 umol/cm2	5.46	
	O=C1/C(=C/c2cccc(Cl)c2)Oc2ccccc21	inactive		<40%
	COc1cc(OC)c2c(c1)O/C(=C\c1ccc(C)c(C)c1)C2=O	inactive		<40%
	COc1ccc(/C=C2\Oc3cc(C)cc(C)c3C2=O)cc1OC	1.02 umol/cm2	5.99	
0.741	COc1ccc(/C=C2\Oc3ccccc3C2=O)cc1OC [3',4'-DIMETHOXY-AURONE]	0.86 umol/cm2	6.07	
0.737	COc1cccc(/C=C2\Oc3ccccc3C2=O)c1 [3'-METHOXY-AURONE]	1.01 umol/cm2	6	
0.382	CCOc1cc(/C=C2\Oc3ccccc3C2=O)ccc1O	1.96 umol/cm2	5.71	
	COc1cc(OC)c2c(c1)OCC2=O [4,6-DIMETHOXYCOUMARANONE]	3.87 umol/cm2	5.41	
	O=C1/C(=C/c2ccccc2)Oc2ccccc21 [(Z)-AURONE]	inactive		<40%
	COc1ccc(/C=C2\Oc3cc(OC)c(OC)c(OC)c3C2=O)cc1OC	inactive		<40%
	COc1ccccc1/C=C1\Oc2ccccc2C1=O [(Z)-2'-METHOXYAURONE]	inactive		<40%

SMILES	log k [2]	ED50 [1]	pED50 [1]	Activity [3]
COc1cc(OC)c2c(c1)O/C(=C\c1ccc(OC)c(OC)c1)C2=O [4,6,3',4'-TETRAMETHOXYAURONE]	0.277	0.12 umol/cm2	6.92	

— ChEMBL document CHEMBL3044933, “Synthesis and insect antifeedant activity of aurones against Spodoptera litura larvae” (J Agric Food Chem, 2007)
